Measured values reported in patent US20220057405A1, “CELLS AND METHODS FOR EVALUATING THE ACTIVITY OF ORGANIC ANION TRANSPORTING POLYPEPTIDE 2A1 (OATP2A1)” (ABSORPTION SYSTEMS LLC, priority 2019, published 2022).
Where two headings read alike, the source gives them in different places.

How the values were obtained:
OATP2A1 [1] = biological target: T1, OATP2A1 (Homo sapiens, UniProt Q92959); assay: Cellular uptake assay with fluorescent substrate of OATP2A1 in HEK293-OATP2A1 cells; assay type: cell-based
Protocol: Key reagents—6-Carboxyfluorescein (6-CF) was purchased from Toronto Research Chemicals (Cat. No. C178325); 5,6-carboxy-SNARF-1 (5,6-Carboxy-seminaphthorhodafluor-1) was obtained from Thermo Fisher Scientific (Cat. No. C1270).
(§1) Assay procedure—HEK293-OATP2A1 cells and the vector control HEK293-VC-Neo cells were plated at 250,000 cells per well on 24 well poly-D-Lysine coated (BioCoat™) plates (Corning) in complete DMEM medium and grown for 48 hrs at 37 C.
(§2) […] For incubations with 6-CF, 1×HBSS pH 5.6 was used without pH adjustment. For the uptake of 5,6-carboxy-SNARF-1, the pH of 1×HBSS was adjusted to 7.4 with Bis-Tris/HCl. After the incubation, the media was aspirated, the cells were washed twice with ice-cold HBSS and lysed with 450 μL of the lysis buffer without the protease inhibitors. Two 150-μL samples from each well of the 24-well plates were taken and transferred into separate wells on black opaque 96-well Opti-plates (PerkinElmer). Fluorescence intensities were measured using λex 483(14) nm and λem 530(30) for 6-CF and λex 576(15) nm and λem 640(10) for 5,6-carboxy-SNARF-1 on a CLARIOstar® multimode microplate reader (BMG LABTECH). 20 μL of the samples used for fluorescence measurement were transferred into clear polystyrene flat-bottom 96-well plates (Thermo Fisher Scientific) and protein concentration was determined.
(§3) Concentrations of the fluorescent substrates of OATP2A1 in cell lysates were determined by measuring fluorescence intensities of the lysates and calculating concentrations of either 6-CF or 5,6-carboxy-SNARF-1 using linear calibration curves obtained from fluorescence intensities of the standard solutions of the fluorescent probes prepared in the same lysis buffer on the same 96-well assay plate. In order to account for differences in cell densities between the wells, protein concentration in the lysates was measured and used for calculating normalized uptake of the fluorescent substrates as follows:
(§4) The IC50 values were calculated from non-linear 4-parameter fit of the % Inhibition values vs. concentration of the inhibitors using GraphPad Prism 5 software. The same software was used for obtaining KM and Vmax values from a non-linear fit of the rate vs. substrate concentration fit into classic Michaelis-Menten equation: […]
Where: • CS is the substrate concentration in cell lysate • CP is the protein concentration in cell lysate • NUTC is the normalized uptake of the substrate in the presence of test article or inhibitor • NUHEK293-VC-Neo is the uninhibited (0.1% DMSO) normalized uptake by vector control cells • NUHEK293-OAM2A1 is the uninhibited (0.1% DMSO) normalized uptake by HEK293-OATP2A1 cells • Vt is the rate of the substrate uptake expressed as Normalized Uptake • Vmax is the calculated maximal rate of the substrate uptake by HEK293-OATP2A1 cells • S is the concentration of the fluorescent substrate of OATP2A1 • KM is the calculated Michaelis constant.

HEK293-VC-Neo cells = assay: Cellular uptake of fluorescent substrate by vector control cells; assay type: cell-based, human; conditions: first 30 min of the assay (FIG. 6A, pH 7.5)
Protocol: as §1
as §2, with “Two 150-μL samples from each well of the 24-well plates were taken and transferred into separate wells on black opaque 96-well Opti-plates (PerkinElmer).” left out
as §3, with “In order to account for differences in cell densities between the wells, protein concentration in the lysates was measured and used for calculating normalized uptake of the fluorescent substrates as follows:” left out

OATP2A1 [2] = biological target: T1, OATP2A1; assay: OATP2A1 inhibition assay, cellular uptake of 6-CF with HEK293-OATP2A1 cells; assay type: cell-based; conditions: 6-CF substrate, pH 5.5
Protocol: as §1
(§5) Cellular uptake of the fluorescent substrates 6-CF and 5,6-carboxy-SNARF-1 was assessed by incubating the HEK293-OATP2A1 and HEK293-VC-Neo cells with 10 μM 6-CF and 5 μM 5,6-carboxy-SNARF-1 for 15 and 20 min, correspondingly. For incubations with 6-CF, 1×HBSS pH 5.6 was used without pH adjustment. For the uptake of 5,6-carboxy-SNARF-1, the pH of 1×HBSS was adjusted to 7.4 with Bis-Tris/HCl. After the incubation, the media was aspirated, the cells were washed twice with ice-cold HBSS and lysed with 450 μL of the lysis buffer without the protease inhibitors. Two 150-μL samples from each well of the 24-well plates were taken and transferred into separate wells on black opaque 96-well Opti-plates (PerkinElmer). Fluorescence intensities were measured using λex 483(14) nm and λem 530(30) for 6-CF and λex 576(15) nm and λem 640(10) for 5,6-carboxy-SNARF-1 on a CLARIOstar® multimode microplate reader (BMG LABTECH). 20 μL of the samples used for fluorescence measurement were transferred into clear polystyrene flat-bottom 96-well plates (Thermo Fisher Scientific) and protein concentration was determined.
All compounds were acquired from Sigma-Aldrich as solid powders and 10 mM stocks were made either in DMSO or HBSS (see Table 1). Serial dilutions of the compounds were made using 3.162-fold […] dilution factor either with DMSO or HBSS at the concentrations 1,000 higher than the final concentrations in the assay. […]
as §3
(§6) Using uninhibited normalized uptake values obtained with HEK293-OATP2A1 and HEK293-VC-Neo cells in 0.1% DMSO in HBSS as the high and low controls of the assay, the % Control and % Inhibition values were calculated as follows: […]
The IC50 values were calculated from non-linear 4-parameter fit of the % Inhibition values vs. concentration of the inhibitors using GraphPad Prism 5 software. […]

OATP2A1 [3] = biological target: T1, OATP2A1; conditions: published potencies of the OATP2A1 inhibitors; read-out: IC50, Literature (Kamo et al., J Pharma Sci, 2017); cited from earlier work
OATP2A1 [4] = biological target: T1, OATP2A1; assay: OATP2A1 inhibition assay, cellular uptake of 5,6-Carboxy-SNARF with HEK293-OATP2A1 cells; assay type: cell-based; conditions: HEK293-OATP2A1 cells, 5,6-Carboxy-SNARF substrate, pH 7.4
Protocol: as §1, §5
All compounds were acquired from Sigma-Aldrich as solid powders and 10 mM stocks were made either in DMSO or HBSS (see Table 1). Serial dilutions of the compounds were made using 3.162-fold […] dilution factor either with DMSO or HBSS at the concentrations 1,000 higher than the final concentrations in the assay. These 1,000× solutions were further diluted 1:100 with HBSS in 2-mL polypropylene deep 96-well block (VWR) to make 10× working stock solutions of the inhibitors.
HEK293-OATP2A1 and HEK293-VC-Neo cells were cultured. The media was aspirated and 800 μL of HBSS was added to each well followed by the addition of 100 μL of the 10× working stock solutions of the inhibitors. The plates were incubated for 5 min at RT, and the assay was started by the addition of 100 μL of either 100 μM 6-CF or 50 μM 5,6-carboxy-SNARF-1 in HBSS.
as §3, §6, §4

| IC50 (OATP2A1 [2]) | IC50 (OATP2A1 [4]) | Molecule | IC50 (OATP2A1 [3]) | further results |
| --- | --- | --- | --- | --- |
|  |  | 5,6-Carboxy-seminaphthorhodafluor-1 [5,6-Carboxy-SNARF] |  | S:B in uptake assay (OATP2A1 [1]; HEK293-OATP2A1 cell line, time-course, pH 7.5 (FIG. 6A)): 142; initial rate of the uptake (OATP2A1 [1]; HEK293-OATP2A1 cells, first 30 min of the assay (FIG. 6A, pH 7.5)): 99.1 pmol/mg/min; Km (OATP2A1 [1]; OATP2A1-mediated uptake in HEK293-OATP2A1 cell line, Michaelis-Menten fit (FIG. 5)): 29 ± 9 µM; transporter specificity (OATP2A1 [1]; OATP2A1 vs. OATP2B1 transporters (FIG. 4A)): specific for OATP2A1 vs. OATP2B1; initial rate of the uptake (HEK293-VC-Neo cells): 0.7 pmol/mg/min |
|  |  | O=C(O)c1ccc2c(c1)C1(OC2=O)c2ccc(O)cc2Oc2cc(O)ccc21 [Compound 6-CF, 6-Carboxyfluorescein] |  | rate of uptake by HEK293-OATP2A1 cell line compared to the control cells (OATP2A1 [1]; FIG. 2, vs vector control cells HEK-VC-Neo): ≥ 230 fold; uptake by HEK293-OATP2A1 cell line vs rate of uptake by the control cells (OATP2A1 [1]; pH 6.5 (FIG. 6B)): 233 times; uptake by HEK293-OATP2A1 cell line vs rate of uptake by the control cells (OATP2A1 [1]; sentence following the initial rates of FIG. 6A): more than 1400 times |
| 1280 nM | 1210 nM | CCCCc1nc(Cl)c(CO)n1Cc1ccc(-c2ccccc2-c2nn[nH]n2)cc1 [Losartan] | 1760 nM |  |
| 142 nM | 148 nM | O=C(Nc1cccc2c(=O)cc(-c3nnn[nH]3)oc12)c1ccc(OCCCCc2ccccc2)cc1 [Pranlukast] | 550 nM |  |
| 222 nM | 186 nM | Cc1ccc(C(=O)Nc2ccc(S(=O)(=O)O)c3cc(S(=O)(=O)O)cc(S(=O)(=O)O)c23)cc1NC(=O)c1cccc(NC(=O)Nc2cccc(C(=O)Nc3cc(C(=O)Nc4ccc(S(=O)(=O)O)c5cc(S(=O)(=O)O)cc(S(=O)(=O)O)c45)ccc3C)c2)c1 [Suramin] | 170 nM |  |
|  | 1110 nM | COc1cc(C(=O)NS(=O)(=O)c2ccccc2C)ccc1Cc1cn(C)c2ccc(NC(=O)OC3CCCC3)cc12 [Zafirlukast] | 1600 nM |  |

| Molecule | IC50 (OATP2A1 [2]) | IC50 (OATP2A1 [4]) | IC50 (OATP2A1 [3]) | further results |
| --- | --- | --- | --- | --- |
| CCCc1nc(C(C)(C)O)c(C(=O)O)n1Cc1ccc(-c2ccccc2-c2nnn[nH]2)cc1 [Olmesartan] | 492 nM | 554 nM | 970 nM |  |
